Measured values: patent US8945594B2, “Vinylic mask with peel-off effect for topical use containing high concentrations of retinoic acid” (Laboratori Farmaceutici Krymi S.p.A., priority 2010, dated 2015)

Key:
[1] = Ex vivo determination of skin-accumulated amount of tretinoin contained in the polyvinylic mask; type: in vitro ADME, human; settings: polyvinylic mask 2.5% Trans-Retinoic acid Lot P10044, n = 3, average ± s.d.
Procedure: Assessing the Absence of Skin Permeation of Retinoic Acid During the Application Period by Ex Vivo Determination of Skin-Accumulated Amount of the Tretinoin Contained in the Polyvinylic Mask
An ex vivo study of the skin-accumulated amount of retinoic acid contained in the polyvinylic mask was conducted at the Department of Pharmaceutical Sciences of the University of Milan. The aim of the work was the assessment of the barrier effect by polyvinyl alcohol toward the percutaneous absorption of Trans-Retinoic acid under standard conditions of use of the mask. A sample of polyvinylic mask containing 2.5% Trans-Retinoic acid (Lot n° P10044) was subjected to the test. The membrane was prepared by using skin of human origin, which is the most appropriate for foreseeing in vivo absorption. As it is known that the skin barrier against permeation of exogenous substances by passive diffusion mainly consists of the corneal layer, absorption was assessed by using as membrane the […] (SCE) obtained by mechanical separation of the derm from the skin.
The difference in the amounts of tretinoin accumulated in the membranes over the two exposure times, reported in the following table 1, is not significant; therefore, it is evident how the barrier formed by polyvinyl alcohol interferes, by inhibiting percutaneous absorption of Trans-Retinoic acid and therefore its undesired systemic effects, which instead are present in products lacking said barrier and containing it.

[2] = cited from earlier work

Amount of SCE-accumulated tretinoin ([1]; exposure time 30 min): 1.32 ± 1.01 μg/cm^2 | Amount of SCE-accumulated tretinoin, % w/w with respect to the amount applied ([1]; exposure time 30 min): 1.15 ± 0.84 % w/w | Amount of SCE-accumulated tretinoin ([1]; exposure time 60 min): 1.63 ± 0.23 μg/cm^2 | Amount of SCE-accumulated tretinoin, % w/w with respect to the amount applied ([1]; exposure time 60 min): 1.38 ± 0.12 % w/w
SMILES: CC1=C(/C=C/C(C)=C/C=C/C(C)=C/C(=O)O)C(C)(C)CCC1 [Tretinoin, retinoic acid]
solubility in dichloromethane [2]: soluble in dichloromethane | solubility in ethanol [2]: scarcely soluble in ethanol | solubility in ether [2]: moderately soluble in ether | solubility in water [2]: practically insoluble in water
